Source: ChEMBL document CHEMBL3399969, “Multifunctional scutellarin-rivastigmine hybrids with cholinergic, antioxidant, biometal chelating and neuroprotective properties for the treatment of Alzheimer's disease” (Bioorg Med Chem, 2015)

Columns and labels:
[1] = Inhibition of rat serum BuChE using butyrylthiocholine iodide as substrate after 15 mins by Ellman method; assay type: cell-free
Mus musculus [2] = test: Cognitive enhancing effect in Kunming mouse assessed as inhibition of scopolamine-induced decreased spontaneous alternation behavior at 6 mg/kg after 30 mins by T-maze test; assay type: functional; parameters: scale not given: the % may be the effect or the level left
Mus musculus [3] = test: Neuroprotective effect in Kunming mouse hippocampus assessed as reduction of scopolamine-induced vitality of AChE at 6 mg/kg by Ellman method; assay type: functional
Mus musculus [4] = test: Neuroprotective effect in scopolamine-treated Kunming mouse hippocampus assessed as increase in vitality of ChAT at 6 mg/kg by Ellman method; assay type: functional

CCN(C)C(=O)Oc1cccc([C@H](C)N(C)C)c1 [RIVASTIGMINE]
IC50 [1]: 1.4 µM | Activity (Mus musculus [2]): 67.3% | Activity (Mus musculus [3]): 0.087 U/mg | Activity (Mus musculus [4]): 44.8 U/mg
